The test system of this experiment is subjects. The experiment in a line: Rate of urea production by tracer technique after ingestion of EAAs following resistance exercise. Format: in vivo. As to conditions: infusion, same tracer methodology, same time interval. As to the method: Acute changes in the rate of urea production were measured using a tracer technique known to those of skill in the art. […] The reason for the lack of an increase in urea production is believed to be the reutilization of non-essential amino acids for muscle protein synthesis rather than transport to the liver for degradation and incorporation of the nitrogen into urea. This is reflected by the steady drop in the concentration of alanine in the blood, as depicted in the chart of FIG. 2B. Thus, the EAA blend greatly stimulates net muscle protein synthesis without increasing blood urea concentration. This aspect of the disclosed composition is of potentially great advantage to CKD patients, as the provision of intact protein alone increases blood urea while having minimal effect on muscle protein net balance.

For `C[C@H](N)C(=O)O` [alanine], the Urea production result is given as “stimulated urea significantly”.

On to `NC(=O)CC[C@H](N)C(=O)O` [glutamine], for which the Urea production entry is “stimulated urea significantly”.

(Values after US20120178672A1, “Compositions and Methods for Sparing Muscle in Renal Insufficiency and During Hemodialysis” (priority 2009, published 2012).)
